These results are taken from paper PMC6369212, “Cytochrome P450 3A Enzymes Are Key Contributors for Hepatic Metabolism of Bufotalin, a Natural Constitute in Chinese Medicine Chansu” (Frontiers in Pharmacology, 2019).

Data set [1] deals with BFT 5β-hydroxylation in pooled HLM. Description: Chemical inhibition of BFT 5β-hydroxylation by selective CYP inhibitors in HLM. It is filed as in vitro ADME, human. As to conditions: BFT 10 μM, HLM 0.25 mg protein/ml.
Experimental: (§1) Human liver microsomes or CYPs were incubated with NADPH-generating system, which included NADP^+ (1 mM), glucose-6-phosphate (10 mM), glucose-6-phosphate dehydrogenase (1 unit/ml), and 4 mM MgCl2 in 100 mM potassium phosphate buffer (pH 7.4) in a total incubation volume of 200 μl. After a 3 min preincubation at 37°C, the reaction was initiated by the addition of NADPH-generating system and further incubated at 37°C for 30 min. The reaction was quenched with 100 μl of ice-cold acetonitrile. The samples were chilled, spun at 20,000 × g for 20 min at 4°C. Aliquots of supernatants were then stored at -20°C until analysis. All incubations throughout the study were done in three experiments conducted in duplicate with S.D. values generally below 10%.
A further data set can be described thus: in vitro. As to conditions: human; for Km: pH 7.4, Km, BFT 5β-hydroxylation, HLM 0.25 mg protein/mL, 30 min, biphasic kinetics.
Another data set has as its target recombinant human CYP3A5 (Homo sapiens, UniProt P20815). Description: Kinetic analysis of 5β-hydroxylation in recombinant CYP3A5.
The next data set has as its system other P450 isoforms. The data set can be described thus: Reaction phenotyping of BFT hydroxylation with other recombinant P450 isoforms. The class given is in vitro ADME, human. The note with it: BFT 3 and 100 μM, isoforms other than CYP3A4 and CYP3A5. An excerpt:
BFT and BF were purchased from Shanghai Winherb Medical Technology Company (Shanghai, China). ABT, furafylline, sulfaphenazole, clomethiazole, omeprazole, 8-methoxypsoralen, ticlopidine, CYP3cide, glucose-6-phosphate dehydrogenase, D-glucose-6-phosphate, and NADP^+ were obtained from Sigma (St. Louis, MO, United States). Montelukast, quinidine, ketoconazole was purchased from Jianglai Biotechnology Co., Ltd. (Shanghai, China). The pooled HLMs (from 50 donors, lot no. X008067) were obtained from BioreclamationIVT (Baltimore, MD, United States). A panel of baculovirus expressed human P450s (CYP1A1, 1A2, 2A6, 2A13, 2B6, 2C8, 2C9, 2C19, 2D6, 2E1, 3A4, 3A5, 4F2, and 4F3), co-expressing NADPH-CYP reductase and cytochrome b5 were obtained from BD Gentest Corp (Woburn, MA, United States). All chemicals and solvents were of analytical grade.
[…] cDNA-expressed human P450 isoforms co-expressing NADPH-P450 reductase were used for assay of BFT hydroxylation activity.

Data set [2] deals with HLM.
Experimental: as §1
(§2) The formation rates of 5-HBFT was within the linear range of the incubation time and protein concentration. […] BFT was incubated with pooled HLM (0.25 mg protein/mL) for 30 min, or with recombinant CYP3A4 (5 nM) and CYP3A5 (10 nM) for 30 min. […] The kinetic constants were calculated with GraphPad Prism software, version 6.0, and the results were graphically represented by Eadie–Hofstee plots.
(§3) (1) v=Vmax 1[S]/Kmax 1+[S]+Vmax 2[S]/Kmax 2+[S]
(§4) where v is the rate of the reaction, [S] is the substrate concentration, Vmax is the maximum velocity estimate, Km is the substrate affinity constant.
(§5) Km values are μM, Vmax values were in nmol/min/mg protein for liver microsomes, or in nmol/min/nmol CYP for CYP3A. […] Each value was the mean ± S.D. of three determinations performed in duplicate.
The test system of data set [3] is HLM. The data set can be described thus: Material balance of BFT and its metabolite in HLM. It is filed as in vitro ADME, human. The method, then:
A single metabolite of BFT was identified following incubation with HLM (0.3 mg protein/ml) in the presence of the NADPH-generating system (Figure 1). […] The metabolite was characterized by UFLC-DAD-ESI-MS, and the formation of monohydroxylbufotalin was NADPH-, time-, and microsome-dependent. […] The [M+H]^+ and [M+CH3CN+H]^+ ion of the metabolite at m/z in HLM were 461.3 and 502.4, respectively.

The target of a further data set is recombinant human CYP3A4 (Homo sapiens, UniProt P08684). The data set can be described thus: Kinetic analysis of 5β-hydroxylation in recombinant CYP3A4.
Data set [4] deals with CC(=O)O[C@H]1C[C@]2(O)[C@@H]3CC[C@@H]4C[C@@H](O)CC[C@]4(C)[C@H]3CC[C@]2(C)[C@H]1c1ccc(=O)oc1. Description: cells, lysate or membranes named. As to conditions: other: CYP3A5 10 nM, 30 min, substrate inhibition kinetics; pH 7.4; 37.0 °C.
Experimental: as §1
(§6) BFT was incubated with pooled HLM (0.25 mg protein/mL) for 30 min, or with recombinant CYP3A4 (5 nM) and CYP3A5 (10 nM) for 30 min. […] The kinetic constants were calculated with GraphPad Prism software, version 6.0, and the results were graphically represented by Eadie–Hofstee plots.
(2) v=Vmax/1+(Km/[S])+([S]/Ksi)
(§7) where Ksi is the substrate inhibition constant.
as §5
The mark [5] stands for this setting: CYP3A5 10 nM, 30 min, substrate inhibition kinetics.
The mark [6] stands for this setting: HLM 0.25 mg protein/mL, 30 min, biphasic kinetics.
Where [7] appears, read: CYP3A4 5 nM, 30 min, biphasic kinetics.

Where “and” joins values, the source holds several entries; their conditions need not be identical. Equal values may be shown once.

Chain of recombinant human CYP3A4 (P08684 2-503 limits assumed): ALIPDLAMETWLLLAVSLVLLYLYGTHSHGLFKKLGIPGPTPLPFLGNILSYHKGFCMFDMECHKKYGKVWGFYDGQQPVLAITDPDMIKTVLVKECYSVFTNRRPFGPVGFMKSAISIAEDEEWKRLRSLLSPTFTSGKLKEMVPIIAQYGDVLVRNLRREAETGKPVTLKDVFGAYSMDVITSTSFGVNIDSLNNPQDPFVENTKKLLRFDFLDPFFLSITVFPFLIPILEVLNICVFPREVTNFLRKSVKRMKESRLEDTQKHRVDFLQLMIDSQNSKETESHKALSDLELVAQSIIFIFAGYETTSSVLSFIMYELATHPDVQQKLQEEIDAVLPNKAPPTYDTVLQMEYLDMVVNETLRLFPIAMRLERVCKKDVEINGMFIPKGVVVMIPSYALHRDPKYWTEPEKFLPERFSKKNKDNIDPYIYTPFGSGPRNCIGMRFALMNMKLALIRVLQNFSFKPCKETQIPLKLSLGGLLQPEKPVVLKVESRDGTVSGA
Chain of recombinant human CYP3A5 (P20815 whole entry, canonical isoform): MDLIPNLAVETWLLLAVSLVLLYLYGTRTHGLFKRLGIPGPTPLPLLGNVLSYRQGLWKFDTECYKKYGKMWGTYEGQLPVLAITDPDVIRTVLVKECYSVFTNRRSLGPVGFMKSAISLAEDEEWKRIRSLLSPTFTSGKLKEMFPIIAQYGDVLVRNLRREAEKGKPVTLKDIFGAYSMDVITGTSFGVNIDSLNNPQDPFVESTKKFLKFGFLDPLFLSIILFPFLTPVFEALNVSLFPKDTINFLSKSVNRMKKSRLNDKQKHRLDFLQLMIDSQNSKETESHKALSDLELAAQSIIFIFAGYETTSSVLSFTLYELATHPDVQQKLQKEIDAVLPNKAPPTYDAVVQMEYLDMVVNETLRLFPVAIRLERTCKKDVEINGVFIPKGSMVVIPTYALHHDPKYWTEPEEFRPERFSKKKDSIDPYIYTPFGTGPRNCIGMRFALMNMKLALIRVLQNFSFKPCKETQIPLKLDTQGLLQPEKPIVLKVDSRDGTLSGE
Experimental for in vitro: as §1, §2, §3, §4, §5
Experimental for recombinant human CYP3A4: as §1, §2, §3, §4, §5
Experimental for recombinant human CYP3A5: as §1, §6
(2) v=Vmax/1+(Km/[S])+([S]/Ksi)
as §7, §5

On to `Cc1ccc(-c2c(-c3nn(C)c4ncnc(N5CC[C@H](N6CCCCC6)C5)c34)cnn2C)cc1` [CYP3cide], for which, in data set [1], the “inhibition of 5-HBFT formation in HLM” value is recorded as around 90%.

On to `Nn1nnc2ccccc21` [ABT, 1-aminobenzotriazole], for which, in data set [1], the “inhibition of 5-HBFT formation in HLM” value is on record as “completely”.

Consider `C[C@]12CC[C@H](O)C[C@H]1CC[C@@H]1[C@@H]2CC[C@]2(C)[C@@H](c3ccc(=O)oc3)CC[C@]12O` [BF, bufalin, reference compound], for which the Km at 30 min in “in vitro” (pH 7.4) is 8 ± 0.52 µM.

As to `CC(=O)O[C@H]1C[C@]2(O)[C@@H]3CC[C@@H]4C[C@@H](O)CC[C@]4(C)[C@H]3CC[C@]2(C)[C@H]1c1ccc(=O)oc1` [BFT, bufotalin], the “CLint, BFT 5β-hydroxylation” value at recombinant human CYP3A5 (CYP3A5) came to 1186.12. In addition, the “Ksi (substrate inhibition constant), BFT 5β-hydroxylation” value on recombinant human CYP3A5 (setting [5]) was 170.00 ± 12.69 µM. In addition, at recombinant human CYP3A5 (setting [5]), the “Vmax, BFT 5β-hydroxylation” value is 3.45 nmol/min per nanomole P450. Moreover, the “kinetic behavior of BFT 5β-hydroxylation” value was “substrate inhibition kinetic” on recombinant human CYP3A5 (CYP3A5, Eadie–Hofstee plot); “biphasic kinetics” with HLM [2] (HLM, Eadie–Hofstee plot); “biphasic kinetics” on recombinant human CYP3A4 (CYP3A4, Eadie–Hofstee plot). Besides, the “metabolite formation by other P450 isoforms” value with other P450 isoforms is “no metabolites were detected”. The figures for the Km in “in vitro” (high-affinity site (Km1)) and in the data set “in vitro” (low-affinity site (Km2)) were 3.71 ± 2.68 µM and 134 ± 72.2 µM, respectively. Further, the “Vmax, high-affinity site (Vmax1), BFT 5β-hydroxylation” value with HLM [2] (setting [6]) is 33.31 per min/mg and 33.31 ± 12.64 per min/mg; at recombinant human CYP3A4 (setting [7]) it was 6.87 per min/nmol P450 and 6.87 ± 3.59 per min/nmol P450. The “Vmax, low-affinity site (Vmax2), BFT 5β-hydroxylation” value is 107.30 per min/mg and 107.30 ± 11.77 per min/mg with HLM [2] (setting [6]); 33.70 per min/nmol P450 and 33.70 ± 3.08 per min/nmol P450 at recombinant human CYP3A4 (setting [7]). Further, the “Compound (%), material balance” value in the data set on HLM [3] (time 0 min) came out at 99.5%; with HLM [3] (time 30 min), 88.0247%; with HLM [3] (time 60 min), 73.5708%.

Turning to `CC(=O)OC1CC2(O)C3CCC4(O)CC(O)CCC4(C)C3CCC2(C)C1c1ccc(=O)oc1` (stereo not drawn) [5-HBFT, 5β-hydroxylbufotalin], the “Compound (%), material balance” value was found to be 0% with HLM [3] (time 0 min), 11.1392% with HLM [3] (time 30 min) and 24.5928% with HLM [3] (time 60 min).

With recombinant human CYP3A5 (Homo sapiens), in data set [4], the Michaelis constant (Km) was determined as 2.91 ± 0.24 µM and the kcat is recorded as 3.45 ± 0.09 nmol/min per nanomole P450.
